Where two headings read alike, the source gives them in different places.
Molecular target: T1, H^+ /K^+ ATPase (Oryctolagus cuniculus, UniProt P27112)
T1 construct: Rabbit gastric glands are isolated from gastric mucosa; from tissue; host or cells: rabbit isolated gastric glands (gastric mucosa, corpus region of the stomach)
Assay: Inhibition of 14C-aminopyrine uptake in rabbit isolated gastric glands stimulated by DBcAMP or high K+ (anti-secretory activity)
Assay type: cell-based
Settings: for inhibition at 100 µM: 10^-4 M, % inhibition of maximum response to secretagogue; for antisecretory activity: result in words in the introduction, test not named
Protocol: Compounds of formula I may be tested for anti-secretory activity by their ability to inhibit the highly specific proton transporting enzyme H^+ /K^+ ATPase.
Potential H^+ /K^+ ATPase inhibitors are evaluated by a technique involving the measurement of aminopyrine accumulation in rabbit isolated gastric glands. Aminopyrine accumulates in acid-secreting cells; therefore, uptake of aminopyrine is increased by secretagogues and an inhibitor of acid secretion will reduce the response to one or more secretagogues depending upon its site of action.
The following test procedure is used:
Rabbit gastric glands are isolated from gastric mucosa from the corpus region of the stomach by a method based on one described by Berglindh T., Obrink K. J., Acta Physiol. Scand.
Compounds are tested at a concentration of 10^-4 M, for their ability to inhibit ^14 C-aminopyrine uptake in gastric glands, stimulated by DBcAMP and high K^+ respectively. Results are expressed as the % inhibition of the maximum response to the secretagogue induced by the test compound.

[1] = 14C-aminopyrine uptake in rabbit gastric glands stimulated by DBcAMP, read-out: % Inhibition to stimulation by: DBcAMP
[2] = 14C-aminopyrine uptake in rabbit gastric glands stimulated by high K^+, read-out: % Inhibition to stimulation by: K^+

T1 sequence (P27112 whole entry): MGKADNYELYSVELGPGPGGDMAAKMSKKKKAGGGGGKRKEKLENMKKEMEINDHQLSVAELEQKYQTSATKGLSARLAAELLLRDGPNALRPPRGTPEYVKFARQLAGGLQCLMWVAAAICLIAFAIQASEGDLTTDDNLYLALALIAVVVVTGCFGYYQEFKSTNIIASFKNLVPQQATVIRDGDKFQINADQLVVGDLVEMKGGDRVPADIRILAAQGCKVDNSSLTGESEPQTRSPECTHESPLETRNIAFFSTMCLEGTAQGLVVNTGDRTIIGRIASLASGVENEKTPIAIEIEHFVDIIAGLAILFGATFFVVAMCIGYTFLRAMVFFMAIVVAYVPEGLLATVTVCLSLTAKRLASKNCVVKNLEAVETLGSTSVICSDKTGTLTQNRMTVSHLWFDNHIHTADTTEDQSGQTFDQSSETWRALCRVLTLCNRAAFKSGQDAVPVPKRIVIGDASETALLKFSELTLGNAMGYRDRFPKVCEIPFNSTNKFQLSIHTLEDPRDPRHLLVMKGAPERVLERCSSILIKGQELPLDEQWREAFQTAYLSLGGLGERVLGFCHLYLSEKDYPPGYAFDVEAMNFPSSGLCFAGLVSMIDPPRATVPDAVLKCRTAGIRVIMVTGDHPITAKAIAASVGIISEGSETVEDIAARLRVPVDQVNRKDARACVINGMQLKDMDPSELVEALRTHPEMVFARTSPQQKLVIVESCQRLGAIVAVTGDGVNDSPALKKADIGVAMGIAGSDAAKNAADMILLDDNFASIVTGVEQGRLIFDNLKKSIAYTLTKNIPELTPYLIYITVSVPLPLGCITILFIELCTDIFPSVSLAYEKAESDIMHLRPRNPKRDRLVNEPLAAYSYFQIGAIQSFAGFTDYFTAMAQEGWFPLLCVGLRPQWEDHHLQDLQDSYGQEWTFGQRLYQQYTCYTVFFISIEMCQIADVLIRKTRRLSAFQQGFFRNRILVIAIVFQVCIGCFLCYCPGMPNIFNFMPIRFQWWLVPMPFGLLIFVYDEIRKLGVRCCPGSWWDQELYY
T1 sequence (P18597 whole entry partner): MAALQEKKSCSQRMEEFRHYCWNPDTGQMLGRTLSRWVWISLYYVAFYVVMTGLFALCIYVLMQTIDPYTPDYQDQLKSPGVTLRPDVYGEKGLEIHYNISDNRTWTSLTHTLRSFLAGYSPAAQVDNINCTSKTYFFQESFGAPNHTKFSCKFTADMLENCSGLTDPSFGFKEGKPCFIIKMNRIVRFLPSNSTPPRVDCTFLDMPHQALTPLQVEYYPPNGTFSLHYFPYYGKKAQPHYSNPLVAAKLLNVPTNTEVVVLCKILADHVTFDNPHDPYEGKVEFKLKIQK

| Structure (SMILES) | inhibition at 100 µM [1] | inhibition at 100 µM [2] | antisecretory activity |
| --- | --- | --- | --- |
| O=C(Nc1ccc(Cl)cc1NC(=O)c1cc[n+]([O-])cc1)c1cc[n+]([O-])cc1 [4-Chloro-N,N'-1,2-phenylenebis(4-pyridinecarboxamide-1-oxide)] | 20.5% | 27% |  |
| O=C(Nc1ccccc1)c1cc[n+]([O-])cc1 [phenyl, reference compound] |  |  | not active |
| Nc1ccccc1NC(=O)c1cc[n+]([O-])cc1 [N-(2-aminophenyl)pyridine-4-carboxamide-1-oxide] | 106% | 130% | exhibited antisecretory activity |
| O=C(Nc1ccc([N+](=O)[O-])cc1)c1cc[n+]([O-])cc1 [N-(4-nitrophenyl)pyridine-4-carboxamide-1-oxide] | 33% | 84% |  |
| O=C(Nc1ccc(Cl)c(C(F)(F)F)c1)c1cc[n+]([O-])cc1 [N-[4-chloro-3-(trifluoromethyl)phenyl]-4-pyridinecarboxamide-1-oxide] |  | 168% |  |
| Nc1ccccc1NC(=O)c1ccncc1 [N--(2-aminophenyl)pyridine-4-carboxamide, N-(2-aminophenyl)-4-pyridinecarboxamide] |  | 54% |  |
| Nc1cc(Cl)c(Cl)cc1NC(=O)c1cc[n+]([O-])cc1 [N-(2-amino-4,5-dichlorophenyl)-4-pyridinecarboxamide-1-oxide] |  | 36% |  |
| Nc1ccc(NC(=O)c2cc[n+]([O-])cc2)cc1 [4-amino, reference compound] |  |  | inactive |
| O=C(Nc1ccccc1Cl)c1cc[n+]([O-])cc1 [2-chlorophenyl, reference compound] |  |  | not active |
| Nc1cccc(NC(=O)c2cc[n+]([O-])cc2)c1 [Example 3-amino, reference compound] |  |  | inactive |
| O=C(Nc1ccc(Cl)cc1)c1cc[n+]([O-])cc1 [N-(4-chlorophenyl)-4-pyridinecarboxamide-1-oxide] | 22% | 32% | exhibited antisecretory activity |

— US4728658A, “Pyridine derivatives” (John Wyeth & Brother Limited, priority 1984, dated 1988)
